The text below walks through data of patent publication US20240425491A1, “HETEROARYL COMPOUNDS USEFUL IN THE TREATMENT OF COGNITIVE DISORDERS” (University College Cardiff Consultants Limited, priority 2021, published 2024).

SMILES strings stand for the structures.

The target in experiment [1] is T1, human α5β3γ2 GABAARs in mouse L(tk−) cells (Homo sapiens, UniProt P18507+P31644).
T1 construct: expressed in transfected cells; host or cells: mouse L(tk−) cells, dexamethasone-inducible vector pMSGneo
The experiment is described as follows: In vitro electrophysiological recording assay (α5-GABAAR relative efficacy), QPatch. It is filed as cell-based. The essentials: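 Whole-cell QPatch recordings at 20-22° C, −65 mV holding, in dexamethasone-induced (1 μM, 24 h) L(tk−) cells. Compound pre-applied ≥1 min, then co-applied with GABA EC10-20; percentage change in leak-corrected peak current, taken at ≥100× Ki, normalised to DMCM efficacy; 0.1% DMSO final.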
A general note: In patch-clamp work, channel activity is measured electrically.

For experiment [2], the target named is T2, human α5β3γ2L GABAA receptors in HEK293 cells (Homo sapiens, UniProt P18507+P31644).
T2 construct: expressed in transfected cells
The experiment is described as follows: In vitro electrophysiological recording assay (α5-GABAAR relative efficacy), SyncroPatch. The note with it: Conc 0.1 μM; GABA EC10-20. It is filed as cell-based. An outline of the steps: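 HEK293 cells stably expressing the receptor, automated whole-cell patch clamp at −80 mV, room temperature (20-22° C). Compound pre-incubated 1-2 min, then co-applied with GABA EC10-20; % change in peak current vs GABA alone (leak-subtracted). Tested generally at ≥100× Ki and normalised to DMCM efficacy as relative efficacy.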

T1 sequence (P31644 32-462): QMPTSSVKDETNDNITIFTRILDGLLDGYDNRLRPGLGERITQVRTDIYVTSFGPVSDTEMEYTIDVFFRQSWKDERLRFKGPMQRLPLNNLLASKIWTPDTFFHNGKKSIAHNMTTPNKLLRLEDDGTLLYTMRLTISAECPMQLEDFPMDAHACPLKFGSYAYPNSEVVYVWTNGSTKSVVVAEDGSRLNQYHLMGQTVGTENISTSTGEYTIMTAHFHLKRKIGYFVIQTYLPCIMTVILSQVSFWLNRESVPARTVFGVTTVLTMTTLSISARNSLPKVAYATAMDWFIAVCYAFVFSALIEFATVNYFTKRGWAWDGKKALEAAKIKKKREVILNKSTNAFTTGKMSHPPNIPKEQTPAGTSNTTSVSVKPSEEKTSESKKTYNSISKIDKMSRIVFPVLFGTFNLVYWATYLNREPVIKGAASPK
T1 sequence (P28472 26-473 partner): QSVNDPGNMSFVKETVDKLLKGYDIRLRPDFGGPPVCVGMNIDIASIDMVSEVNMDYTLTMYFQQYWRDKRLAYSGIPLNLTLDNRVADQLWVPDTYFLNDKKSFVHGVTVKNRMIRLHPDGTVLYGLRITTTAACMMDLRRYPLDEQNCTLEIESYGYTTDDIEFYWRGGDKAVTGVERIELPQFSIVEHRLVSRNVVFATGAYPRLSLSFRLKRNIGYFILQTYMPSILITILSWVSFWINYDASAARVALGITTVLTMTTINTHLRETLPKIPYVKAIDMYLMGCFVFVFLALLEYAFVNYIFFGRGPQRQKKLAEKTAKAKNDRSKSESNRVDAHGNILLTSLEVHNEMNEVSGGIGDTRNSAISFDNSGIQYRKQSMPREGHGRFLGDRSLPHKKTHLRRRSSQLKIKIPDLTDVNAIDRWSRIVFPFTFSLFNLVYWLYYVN
T1 sequence (P18507 40-475): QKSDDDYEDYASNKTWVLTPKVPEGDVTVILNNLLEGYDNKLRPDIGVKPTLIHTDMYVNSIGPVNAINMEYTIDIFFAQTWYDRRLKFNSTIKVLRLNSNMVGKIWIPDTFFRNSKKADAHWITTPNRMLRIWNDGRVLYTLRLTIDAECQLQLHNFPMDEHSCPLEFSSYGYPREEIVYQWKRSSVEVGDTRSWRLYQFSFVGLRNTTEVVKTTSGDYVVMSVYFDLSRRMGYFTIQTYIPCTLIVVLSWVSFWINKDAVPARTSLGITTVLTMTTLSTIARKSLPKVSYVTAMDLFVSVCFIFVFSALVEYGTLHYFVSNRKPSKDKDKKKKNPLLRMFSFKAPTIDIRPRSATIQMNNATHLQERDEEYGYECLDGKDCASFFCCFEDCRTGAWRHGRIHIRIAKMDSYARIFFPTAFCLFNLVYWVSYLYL
T2 sequence (P31644 32-462): as the sequence (P31644 32-462) above
T2 sequence (P28472 26-473 partner): as the sequence (P28472 26-473 partner) above
T2 sequence (P18507 40-475): as the sequence (P18507 40-475) above

Turning to `COc1nc(-n2ccnc2)ccc1NC(=O)c1c(-c2ccccc2)noc1C` [Example 1, N-(6-Imidazol-1-yl-2-methoxy-3-pyridyl)-5-methyl-3-phenyl-isoxazole-4-carboxamide], the “GABA-elicited whole-cell current in the presence of compound” value in experiment [1] (1 μM, QPatch, same cell before and after addition, FIG. 1) is “smaller current”. In experiment [1] (Conc 1 μM, GABA EC10-20), the “α5-GABAAR Relative Efficacy (to DMCM), Qpatch” value is reported as −0.91. For the same compound, in experiment [2], the “α5-GABAAR Relative Efficacy (to DMCM), SyncroPatch” value was −1.11.
